Starred links: 1 amine or outer side, 2 acyl side, 3 side chain; linkers in the order of their positions; H or OH if unused. Positions of bridges follow the written chain, without caps; N, C: chain ends. Non-standard residues stand in square brackets, D forms with d. Residues, ends and D or L forms follow the SMILES beside them. Groups on a side chain read outwards from the residue. *: point of attachment. Phe(3-CH2NH2) = O=C([C@H](Cc1cccc(CN[*:3])c1)N[*:1])[*:2]; Ala(imidazol-2-yl) = N[C@@H](Cc1ncc[nH]1)C(=O)O; Trp(5-F) = N[C@@H](Cc1c[nH]c2ccc(F)cc12)C(=O)O; Phe(4-CH2NH2) = NCc1ccc(C[C@H](N)C(=O)O)cc1; X3 = O=C(CCSCc1cc(F)cc(CSCCN[*:1])c1)[*:2]; Heptanedioyl = O=C(CCCCCC(=O)[*:2])[*:1]; γGlu = O=C(O)[C@H](CCC(=O)[*:2])N[*:1]; mXylylene = c1cc(C[*:1])cc(C[*:2])c1; Adipoyl = O=C(CCCCC(=O)[*:2])[*:1]; Glutaryl = O=C(CCCC(=O)[*:2])[*:1]; Lys(Me2) = CN(C)CCCC[C@H](N)C(=O)O; Palmitoyl = CCCCCCCCCCCCCCCC(=O)*; αMeP = C[C@@]1(C(=O)O)CCCN1; AEEEA = NCCOCCOCCOCC(=O)O; Dap = NC[C@H](N)C(=O)O; PEG2 = NCCOCCOCCC(=O)O; AEEA = NCCOCCOCC(=O)O; AEA = NCCOCC(=O)O; Mpa = O=C(O)CCS
Legend:
PCSK9 [1] = target: T1, PCSK9 (Homo sapiens (Human), UniProt Q8NBP7); test: PCSK9 Alexa FRET Standard assay (displacement of AlexaFluor647 tagged cyclic peptide Reagent A); type: binding; conditions: PCSK9 Alexa FRET Standard assay, 0.5 nM PCSK9, 20 nM AF cyclic peptide Reagent A; read-out: IC50
Outline: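 TR-FRET displacement: 0.5 nM biotinylated PCSK9 with 1.25 nM Strep-Eu and 20 nM AlexaFluor-tagged cyclic peptide (final) in 50 mM HEPES pH 7.4, 0.15 M NaCl, 5 mM CaCl2, 0.01% BSA, 0.01% P20, ≥2 h at room temperature. IC50 from sigmoidal fit, converted to Ki via peptide KD; falling Eu counts flagged false positives.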

PCSK9 [2] = target: T1, PCSK9; test: PCSK9 Alexa FRET Plus assay (displacement of AlexaFluor647 tagged cyclic peptide Reagent B); type: binding; conditions: Alexa FRET Plus, 0.5 nM PCSK9, 960 nM AF cyclic peptide Reagent B; read-out: IC50
Outline: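 TR-FRET displacement with final 0.5 nM biotinylated PCSK9, 1.25 nM Strep-Eu and 960 nM AlexaFluor-tagged cyclic peptide in HEPES pH 7.4, NaCl, CaCl2, BSA, P20; ≥2 h at room temperature. IC50 from sigmoidal fit, converted to Ki using peptide KD. Falling europium counts flagged false positives.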

T1 sequence (Q8NBP7 153-692): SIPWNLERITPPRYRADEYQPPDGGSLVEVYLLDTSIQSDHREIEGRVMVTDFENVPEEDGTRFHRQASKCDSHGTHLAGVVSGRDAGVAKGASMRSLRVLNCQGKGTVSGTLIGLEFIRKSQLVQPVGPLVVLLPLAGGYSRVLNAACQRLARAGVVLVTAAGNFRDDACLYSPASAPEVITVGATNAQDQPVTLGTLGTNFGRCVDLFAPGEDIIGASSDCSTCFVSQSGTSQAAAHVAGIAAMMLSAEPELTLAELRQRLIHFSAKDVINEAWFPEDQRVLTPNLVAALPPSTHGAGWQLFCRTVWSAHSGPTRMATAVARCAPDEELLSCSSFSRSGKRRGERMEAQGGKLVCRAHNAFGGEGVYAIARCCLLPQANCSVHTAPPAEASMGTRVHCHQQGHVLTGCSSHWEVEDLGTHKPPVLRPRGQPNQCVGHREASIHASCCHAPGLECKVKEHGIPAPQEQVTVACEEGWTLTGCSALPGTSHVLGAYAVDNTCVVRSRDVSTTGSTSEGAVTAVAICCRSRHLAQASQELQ

COc1ccc(C[C@@H]2NC(=O)[C@H](Cc3cnc[nH]3)NC(=O)[C@H](CC(=O)O)NC(=O)[C@H](Cc3c[nH]c4ccc(F)cc34)NC(=O)[C@H](Cc3c[nH]c4ccc(F)cc34)NC(=O)[C@@H](C)NC(=O)CCCC(=O)NCc3ccc(cc3)C[C@@H](C(N)=O)NC(=O)[C@]3(C)CCCN3C2=O)cc1 [Compound 417] ([dA][Trp(5-F)][Trp(5-F)]DHY(Me)[αMeP][Phe(4-CH2NH2)]-NH2; linker N-8 via Glutaryl)
IC50 (PCSK9 [1]): 0.11 to 100 nM | IC50 (PCSK9 [2]): 100 to 500 nM

COc1ccc(C[C@@H]2NC(=O)[C@H](Cc3cnc[nH]3)NC(=O)[C@H](CC(=O)O)NC(=O)[C@H](Cc3c[nH]c4ccc(F)cc34)NC(=O)[C@H](Cc3c[nH]c4ccc(F)cc34)NC(=O)[C@@H](C)NC(=O)CCCCC(=O)NCc3ccc(cc3)C[C@@H](C(N)=O)NC(=O)[C@]3(C)CCCN3C2=O)cc1 [Compound 419] ([dA][Trp(5-F)][Trp(5-F)]DHY(Me)[αMeP][Phe(4-CH2NH2)]-NH2; linker N-8 via Adipoyl)
IC50 (PCSK9 [1]): 100 to 1000 nM | IC50 (PCSK9 [2]): 500 to 5000 nM

CC(=O)N[C@@H]1CCC/C=C/CO[C@H]2C[C@@H](C(N)=O)N(C2)C(=O)[C@H](Cc2ccc(O)cc2)NC(=O)[C@H](Cc2cnc[nH]2)NC(=O)[C@H](CC(=O)O)NC(=O)[C@H](Cc2c[nH]c3ccc(F)cc23)NC(=O)[C@H](Cc2c[nH]c3ccc(F)cc23)NC(=O)CNC1=O [Compound 420]
IC50 (PCSK9 [1]): 100 to 1000 nM | IC50 (PCSK9 [2]): 100 to 500 nM

CC(=O)N[C@@H]1CCCC/C=C\CO[C@H]2C[C@@H](C(N)=O)N(C2)C(=O)[C@H](Cc2ccc(O)cc2)NC(=O)[C@H](Cc2cnc[nH]2)NC(=O)[C@H](CC(=O)O)NC(=O)[C@H](Cc2c[nH]c3ccc(F)cc23)NC(=O)[C@H](Cc2c[nH]c3ccc(F)cc23)NC(=O)CNC1=O [Compound 422]
IC50 (PCSK9 [1]): 0.11 to 100 nM | IC50 (PCSK9 [2]): 100 to 500 nM

COc1ccc(C[C@@H]2NC(=O)[C@H](Cc3cnc[nH]3)NC(=O)[C@H](CC(=O)O)NC(=O)[C@H](Cc3c[nH]c4ccc(F)cc34)NC(=O)[C@H](Cc3c[nH]c4ccc(F)cc34)NC(=O)[C@@H](C)NC(=O)[C@H](CNC(=O)COCCN)NC(=O)CCSCc3cc(F)cc(c3)CSCCNC(=O)[C@]3(C)CCCN3C2=O)cc1 [Compound 423] (cyclo(DHY(Me)[αMeP][X3][Dap](AEA)[dA][Trp(5-F)][Trp(5-F)]))
IC50 (PCSK9 [1]): 0.11 to 100 nM | IC50 (PCSK9 [2]): 0.1 to 100 nM

NC(=O)[C@@H]1Cc2ccc(cc2)CNC(=O)CCCC(=O)NCC(=O)N[C@@H](Cc2c[nH]c3ccc(F)cc23)C(=O)N[C@@H](Cc2c[nH]c3ccc(F)cc23)C(=O)N[C@@H](CC(=O)O)C(=O)N[C@@H](Cc2cnc[nH]2)C(=O)N[C@@H](Cc2ccc(O)cc2)C(=O)N1 [Compound 437] (G[Trp(5-F)][Trp(5-F)]DHY[Phe(4-CH2NH2)]-NH2; linker N-7 via Glutaryl)
IC50 (PCSK9 [1]): 0.11 to 100 nM | IC50 (PCSK9 [2]): 100 to 500 nM

COc1ccc(C[C@@H]2NC(=O)[C@H](Cc3cnc[nH]3)NC(=O)[C@H](CC(=O)O)NC(=O)[C@H](Cc3c[nH]c4ccc(F)cc34)NC(=O)[C@H](Cc3c[nH]c4ccc(F)cc34)NC(=O)[C@@H](C)NC(=O)CCCCCC(=O)NCc3ccc(cc3)C[C@@H](C(N)=O)NC(=O)[C@]3(C)CCCN3C2=O)cc1 [Compound 440] ([dA][Trp(5-F)][Trp(5-F)]DHY(Me)[αMeP][Phe(4-CH2NH2)]-NH2; linker N-8 via Heptanedioyl)
IC50 (PCSK9 [1]): 100 to 1000 nM | IC50 (PCSK9 [2]): 100 to 500 nM

CCCCCCCCCCCCCCCC(=O)N[C@@H](CCC(=O)NCCOCCOCC(=O)NCCOCCOCC(=O)NCCCC[C@@H]1NC(=O)[C@H](CCCCN)NC(=O)CCSCc2cccc(c2)CSC[C@@H](C(N)=O)NC(=O)[C@]2(C)CCCN2C(=O)[C@H](Cc2ccc(O)cc2)NC(=O)[C@H](Cc2cnc[nH]2)NC(=O)[C@H](CC(=O)O)NC(=O)[C@H](Cc2c[nH]c3ccc(F)cc23)NC(=O)[C@H](Cc2c[nH]c3ccc(F)cc23)NC1=O)C(=O)O [Compound 452] ([Mpa]KK([AEEA-AEEA-γGlu-Palmitoyl])[Trp(5-F)][Trp(5-F)]DHY[αMeP]C-NH2; linker 1-10 via mXylylene)
IC50 (PCSK9 [1]): 0.11 to 100 nM | IC50 (PCSK9 [2]): 0.1 to 100 nM

CCCCCCCCCCCCCCCC(=O)N[C@@H](CCC(=O)NCCOCCOCC(=O)NCCOCCOCC(=O)NCc1ccc(C[C@@H]2NC(=O)[C@@H](C)NC(=O)[C@H](CCCCN)NC(=O)CCSCc3cccc(c3)CSC[C@@H](C(N)=O)NC(=O)[C@]3(C)CCCN3C(=O)[C@H](Cc3ccc(O)cc3)NC(=O)[C@H](Cc3cnc[nH]3)NC(=O)[C@H](CC(=O)O)NC(=O)[C@H](Cc3c[nH]c4ccc(F)cc34)NC2=O)cc1)C(=O)O [Compound 453] ([Mpa]K[dA][Phe(4-CH2NH2)]([AEEA-AEEA-γGlu-Palmitoyl])[Trp(5-F)]DHY[αMeP]C-NH2; linker 1-10 via mXylylene)
IC50 (PCSK9 [1]): 0.11 to 100 nM | IC50 (PCSK9 [2]): 0.1 to 100 nM

CCCCCCCCCCCCCCCC(=O)N[C@@H](CCC(=O)NCCOCCOCC(=O)NCCOCCOCC(=O)NCc1cccc(C[C@@H]2NC(=O)[C@@H](C)NC(=O)[C@H](CCCCN)NC(=O)CCSCc3cccc(c3)CSC[C@@H](C(N)=O)NC(=O)[C@]3(C)CCCN3C(=O)[C@H](Cc3ccc(O)cc3)NC(=O)[C@H](Cc3cnc[nH]3)NC(=O)[C@H](CC(=O)O)NC(=O)[C@H](Cc3c[nH]c4ccc(F)cc34)NC2=O)c1)C(=O)O [Compound 454] ([Mpa]K[dA][Phe(3-CH2NH2)]([AEEA-AEEA-γGlu-Palmitoyl])[Trp(5-F)]DHY[αMeP]C-NH2; linker 1-10 via mXylylene)
IC50 (PCSK9 [1]): 0.11 to 100 nM | IC50 (PCSK9 [2]): 100 to 500 nM

NC(=O)[C@@H]1Cc2ccc(cc2)CNC(=O)CCCCCC(=O)NCC(=O)N[C@@H](Cc2c[nH]c3ccc(F)cc23)C(=O)N[C@@H](Cc2c[nH]c3ccc(F)cc23)C(=O)N[C@@H](CC(=O)O)C(=O)N[C@@H](Cc2cnc[nH]2)C(=O)N[C@@H](Cc2ccc(O)cc2)C(=O)N1 [Compound 455] (G[Trp(5-F)][Trp(5-F)]DHY[Phe(4-CH2NH2)]-NH2; linker N-7 via Heptanedioyl)
IC50 (PCSK9 [1]): 1000 to 12100 nM | IC50 (PCSK9 [2]): 500 to 5000 nM

CCCCCCCCCCCCCCCC(=O)N[C@@H](CCC(=O)NCCOCCOCC(=O)NCCOCCOCC(=O)NCCCC[C@@H]1NC(=O)CCSCc2cccc(c2)CSC[C@@H](C(N)=O)NC(=O)[C@]2(C)CCCN2C(=O)[C@H](Cc2ccc(O)cc2)NC(=O)[C@H](Cc2cnc[nH]2)NC(=O)[C@H](CC(=O)O)NC(=O)[C@H](Cc2c[nH]c3ccc(F)cc23)NC(=O)[C@H](Cc2c[nH]c3ccc(F)cc23)NC(=O)[C@@H](C)NC1=O)C(=O)O [Compound 456] ([Mpa]K([AEEA-AEEA-γGlu-Palmitoyl])[dA][Trp(5-F)][Trp(5-F)]DHY[αMeP]C-NH2; linker 1-10 via mXylylene)
IC50 (PCSK9 [1]): 21000 to 50000 nM | IC50 (PCSK9 [2]): 500 to 5000 nM

NC(=O)[C@@H]1Cc2cccc(c2)CNC(=O)CCCCC(=O)NCC(=O)N[C@@H](Cc2c[nH]c3ccc(F)cc23)C(=O)N[C@@H](Cc2c[nH]c3ccc(F)cc23)C(=O)N[C@@H](CC(=O)O)C(=O)N[C@@H](Cc2cnc[nH]2)C(=O)N[C@@H](Cc2ccc(O)cc2)C(=O)N1 [Compound 457] (G[Trp(5-F)][Trp(5-F)]DHY[Phe(3-CH2NH2)]-NH2; linker N-7 via Adipoyl)
IC50 (PCSK9 [1]): 21000 to 50000 nM | IC50 (PCSK9 [2]): 500 to 5000 nM

NC(=O)[C@@H]1Cc2cccc(c2)CNC(=O)CCCC(=O)NCC(=O)N[C@@H](Cc2c[nH]c3ccc(F)cc23)C(=O)N[C@@H](Cc2c[nH]c3ccc(F)cc23)C(=O)N[C@@H](CC(=O)O)C(=O)N[C@@H](Cc2ncc[nH]2)C(=O)N[C@@H](Cc2ccc(O)cc2)C(=O)N1 [Compound 458] (G[Trp(5-F)][Trp(5-F)]D[Ala(imidazol-2-yl)]Y[Phe(3-CH2NH2)]-NH2; linker N-7 via Glutaryl)
IC50 (PCSK9 [1]): 21000 to 50000 nM | IC50 (PCSK9 [2]): 500 to 5000 nM

CCCc1cccc(C[C@@H]2NC(=O)[C@@H](C)NC(=O)[C@H](C)NC(=O)CCSCc3cccc(c3)CSCCNC(=O)[C@]3(C)CCCN3C(=O)[C@H](Cc3ccc(OC)cc3)NC[C@H]([C@@H](C)OC)NC(=O)[C@@H]3[C@@H](O)CCN3C(=O)[C@H](Cc3c[nH]c4ccc(F)cc34)NC2=O)c1 [Compound 459]
IC50 (PCSK9 [1]): 21000 to 50000 nM | IC50 (PCSK9 [2]): 500 to 5000 nM

COc1ccc(C[C@@H]2NC(=O)[C@H](Cc3ncc[nH]3)NC(=O)[C@H](CC(=O)O)NC(=O)[C@H](Cc3c[nH]c4ccc(F)cc34)NC(=O)[C@H](Cc3c[nH]c4ccc(F)cc34)NC(=O)[C@@H](C)NC(=O)[C@H](CCCCN(C)C)NC(=O)CCSCc3cc(F)cc(c3)CSCCNC(=O)[C@]3(C)CCCN3C2=O)cc1 [Compound 466] (cyclo(D[Ala(imidazol-2-yl)]Y(Me)[αMeP][X3][Lys(Me2)][dA][Trp(5-F)][Trp(5-F)]))
IC50 (PCSK9 [1]): 100 to 1000 nM | IC50 (PCSK9 [2]): 500 to 5000 nM

CCCCCCCCCCCCCCCC(=O)N[C@@H](CCC(=O)NCCOCCOCCC(=O)NCCOCCOCC(=O)NCCCC[C@H](NC(=O)COCCOCCOCCNC(=O)[C@@H]1CSCc2cccc(c2)CSCCC(=O)N[C@@H](CCCCN)C(=O)N[C@H](C)C(=O)N[C@@H](Cc2c[nH]c3ccc(F)cc23)C(=O)N[C@@H](Cc2c[nH]c3ccc(F)cc23)C(=O)N[C@@H](CC(=O)O)C(=O)N[C@@H](Cc2cnc[nH]2)C(=O)N[C@@H](Cc2ccc(O)cc2)C(=O)N2CCC[C@@]2(C)C(=O)N1)C(N)=O)C(=O)O [Compound 473] ([Mpa]K[dA][Trp(5-F)][Trp(5-F)]DHY[αMeP]C[AEEEA]K([AEEA-PEG2-γGlu-Palmitoyl])-NH2; linker 1-10 via mXylylene)
IC50 (PCSK9 [1]): 21000 to 50000 nM | IC50 (PCSK9 [2]): 500 to 5000 nM
